Measurements reported in ChEMBL document CHEMBL3507680, “University of Dundee, Gates Library screen for HepG2 cell viability”.

Assay: Human HepG2 cell viability assay in 384 well format
Type: toxicity, cell-based
Parameters: dose 125 nL, time 70.5 hour; concentration not given beside the values
Details: HepG2 cells, read-out: Inhibition

SMILES	cytotoxicity at 70.5 h [%]
C1CC(N2Cc3nnn(CC4CC4)c3C(COCC3CC3)C2)C1 (stereo not given)	-3.4
CNC(=O)c1ccc(CN(C(C)C)C(C)C)o1	-4.83
Cc1[nH]ccc1C(=O)N[C@H]1CN(S(C)(=O)=O)C[C@@H]1C1CC1	-5.26
CCCc1nc(CN2CCCC(Cn3cncn3)C2)no1 (stereo not given)	3.03
CCCC(C#N)NC(=O)c1sccc1CC (stereo not given)	-12.4
CCc1nnc2n1CCN(Cc1noc(-c3cccc(C)c3)n1)C2	-2.11
CN(C)CCN(C)c1ccc(-c2nc(COc3ccccc3)no2)cn1	6.86
Cc1cc(C(F)(F)F)cc(N2CCN(Cc3ccccc3)CC(O)C2)n1 (stereo not given)	3.5
COCCNC(=O)C(C)n1nc(-c2ccco2)cc(N)c1=O (stereo not given)	23.7
CCc1nc(CCNC(=O)NC2CC(=O)N(C(C)(C)C)C2)cs1 (stereo not given)	-5.26
CCN(Cc1cnc(C)cn1)C1CCN(c2ccccc2)C1=O (stereo not given)	2.9
COc1c(CNCc2ccnc(N3CCOCC3)c2)c(C)nn1C	-3.59
Cc1ccc(N2CCC(NCc3cnc(C4CCC4)s3)CC2)nc1	6.63
Cc1ccc(CNC(=O)NC(C)CCS(C)(=O)=O)cc1F (stereo not given)	-7.34
CCN(CC)Cc1cc(C(=O)N2CC[C@@]3(O)CCCC[C@H]3C2)c(C)o1	-9.79
CCN(Cc1cc(Cl)c(O)c(OC)c1)Cc1nc(COC)no1	-4.93
Cc1nc(C)n(CC2CCCN(Cc3ccc4c(c3)OCCO4)C2)n1 (stereo not given)	-1.48
COc1ccccc1CCC(=O)N1C[C@H](c2ccccc2)[C@@H](N)C1	-8.71
Cc1cnn(CC2CN(Cc3nnc(C4CC4)o3)CCO2)c1 (stereo not given)	-5.68
c1cnnc(N2CCCC(NCc3nc(-c4ccsc4)no3)C2)c1 (stereo not given)	-0.51
Cc1nc(C)n(C2CCCN(C(=O)c3cc(C(N)=O)cs3)C2)n1 (stereo not given)	-17.1
COc1ccc(C)cc1NC(=O)Nc1cnc(N2CCOCC2)nc1	-0.928
CC(=O)N1CCN(c2ncnc3cc4c(cc23)OCCO4)CC1	-6.91

SMILES	cytotoxicity at 70.5 h [%]
CS(=O)(=O)N1CCc2nc(NC(=O)Nc3c(F)cccc3F)sc2C1	0.946
CS(=O)(=O)N1CCCC12CCCN(C(=O)c1ccc[nH]1)C2 (stereo not given)	9.82
Cc1cnn(CC(=O)N2CCCN(Cc3cnn(C(C)C)c3)CC2)c1	-0.435
COCCN1CC(C(=O)N(C)Cc2ccc(Cl)s2)CC1=O (stereo not given)	-10.5
CC(CCN1CCCn2nc(CNS(C)(=O)=O)cc2C1)c1ccccc1 (stereo not given)	17.7
NC(=O)c1csc(C(=O)N2CCCCC2Cn2cccn2)c1 (stereo not given)	-10.3
CC1CCN(c2ccc(C(=O)N3CCCC3c3ccc[nH]3)cn2)CC1 (stereo not given)	5.1
CCn1nc(C)c(CN(CCOC)Cc2ccccn2)c1C	-6.94
CS(=O)(=O)CCNC(=O)N(Cc1ccoc1)C1CCCCC1	-7.65
Cn1ccnc1CN1CCN(Cc2ccncc2)[C@@H]2CS(=O)(=O)C[C@@H]21	-13.6
OCCN1CCC(CNCc2ccccc2OC(F)(F)F)CC1	-7.57
CCNC(=O)NCC1(CN2CCOCC2)CCCCC1	0.842
Cc1cnn(CC2CN(Cc3cccc(C(N)=O)c3)CCO2)c1 (stereo not given)	-9.19
CC(C)NC(=O)C1Cc2nc(-c3ccsc3)sc2N1CC1CC1 (stereo not given)	-6.43
NC(=O)C(NCc1ccc(Cl)s1)c1ccccc1 (stereo not given)	-7.49
CS(=O)(=O)C1CCN(S(=O)(=O)c2ccc(F)c(F)c2)CC1	1.4
Cc1ccccc1CS(=O)(=O)c1nnc(N2CCOCC2)s1	8.66
COc1cccc(OC)c1CC(=O)NC(C#N)c1ccsc1 (stereo not given)	-12.5
Cc1cc(NS(=O)(=O)c2ccccc2F)ccc1-n1cccc1C(=O)O	-1.31
Cc1nn(C)c(C)c1C1CCCN1Cc1nc(N)c2ccccc2n1 (stereo not given)	-2.07
CC(C)CC(NC(=O)c1ccco1)c1nnc2ccccn12 (stereo not given)	-24.3
COc1ccc(CN(Cc2cn(C)nc2C)CC2CCCO2)c(OC)c1 (stereo not given)	-2.41
CC(C(=O)NC1CC1)n1nc(-c2cccs2)cc(N)c1=O (stereo not given)	6.89

SMILES	cytotoxicity at 70.5 h [%]
CNC(=O)c1cn[nH]c1C1CCCN1C(=O)c1ccccn1 (stereo not given)	-1.79
COCC1CC2(CCN(CC3CC3)CC2)CN1Cc1csc(C)n1 (stereo not given)	-5.11
COc1cccc(N2CCN(C(=O)[C@H](O)C3CCCCC3)CC2=O)c1	-8.15
O=C(CCc1nc(C2CC2)no1)c1ccccc1	-16
O=C(CCc1ccncc1)N1CCCC(n2cccn2)C1 (stereo not given)	-1.5
CC(c1nc(C2CC2)no1)N1CCN(CCN2CCCC2=O)CC1 (stereo not given)	-0.249
CCn1nc2c(cc1=O)CN(c1ncnc3ccsc13)CC2	-7.93
Fc1cnc(N2CCCn3c(nnc3Cn3cccn3)C2)nc1	12.7
COc1cccc(S(=O)(=O)N2C[C@H](OC)[C@]3(CCCO3)C2)c1	-4.33
O=S(=O)(NCC1(c2cccs2)CCOCC1)c1cccnc1	-6.99
Cc1ccc(-c2nnc(CN3CCN(c4ccccn4)CC3)o2)cc1	3.67
COCCOc1ccc(C(=O)N[C@@H]2CNCCC[C@H]2O)cc1	-2.53
c1cncc(-c2nccc(CN3CCC(N4CCCCC4)CC3)n2)c1	18.5
CN(Cc1cnn(C)c1)C1CCN(c2cccc(-c3cscn3)c2)CC1	-2.02
Nc1cccnc1N1CCCCCC1	2.46
O=C(c1ccccc1O)N1CCn2c(nnc2C(F)(F)F)C1	-1.13
Fc1ccc(C(NCc2nnc(-c3ccco3)o2)C2CCC2)cc1 (stereo not given)	-12
COc1cccc(N2CCN(CCC(=O)NC3CCCC3)CC2)c1	-5.97
CS(=O)(=O)Cc1ccc(NC(=O)Cc2cccnc2)cc1F	-4.71
CCOC(=O)c1sc2ccsc2c1CN	-3.38
COC(=O)NCc1cc2n(n1)CCCN(C(C)=O)C2	-7.46
O=C(Nc1cnccn1)[C@H]1CO[C@H]2CCN(c3ncc(F)cn3)C[C@H]2C1	15
O=C1CC2(CCN(C(=O)c3ccccn3)C2)Nc2ccccc2N1 (stereo not given)	-14.7

SMILES	cytotoxicity at 70.5 h [%]
COc1ccc(-n2c(CO)nc3ccccc32)cc1CO	-6.11
COC(=O)C(O)C1CCN(CCc2ccccn2)CC1 (stereo not given)	-1.57
O=C(NCC1CCOCC1)c1cc(-c2ccncc2)c2cnccc2n1	-2.01
O=C(COc1ccc(Br)cc1F)Nc1cn[nH]c1	15.8
Cc1cc(NC(=O)CN2C(=O)CC(C)(C)c3ccccc32)no1	-3
OC(CN1CCN(Cc2ccc(F)cc2)CC1)C1CC1 (stereo not given)	-1.06
COc1cc(CNCCc2cnn(C)c2)cc2c1OCCO2	-12.1
COCCN1CCOCC2(CCCN(Cc3ccc(C)o3)C2)C1 (stereo not given)	7.21
CNC(=O)[C@H]1C[C@@H]2CN(Cc3csc(C)n3)C[C@@H]2N1S(C)(=O)=O	27.8
Cn1cc(CN2CC[C@H]3CO[C@H](CNc4ncccn4)[C@H]3C2)cn1	20.3
COCC1COCCC12CCN(Cc1nccs1)CC2 (stereo not given)	-5.6
COc1ccccc1N1CCN(C(=O)Cn2nc(C)cc2C)CC1(C)C	-14.1
CCc1ccc2c(c1)C(CCNC(=O)Cc1cccc(F)c1)C(=O)N2 (stereo not given)	-4.81
CN1CCOC(CNCc2coc(-c3cccc(F)c3)n2)C1 (stereo not given)	36.2
Cc1noc(-c2ccnc(Oc3ccc(CN4CCCC4)cc3F)c2)n1	13.3
CCOc1ncccc1CNc1nnc(C)c(C)c1C#N	-0.879
O=c1n(Cc2cccc(F)c2)nc2ncccn12	15.8
CN(Cc1ccc(F)cc1)C(=O)CN1CCOC(Cn2cncn2)C1 (stereo not given)	40.3
O=c1oc2ccccc2n1CCCN1CCCC1c1ccc(O)cc1 (stereo not given)	-1.72
CC(C)(C)C(=O)N1CCCc2c(cnn2-c2ccccc2)C1	1.62
COc1ccc(CCN2CCN(C(=O)c3scnc3C)CC2)cc1	-5.8
O=C(c1cccnc1)N1CCOC2(COCCN(c3cncnc3)C2)C1 (stereo not given)	-9.01
O=C1CCC2(CCCN(C(=O)c3ccco3)CC2)N1 (stereo not given)	-3.81

SMILES	cytotoxicity at 70.5 h [%]
Cn1cnc2c1CCN(C(C(=O)N1CCCCC1)c1ccccc1)C2 (stereo not given)	-6.79
CNS(=O)(=O)c1ccc(F)c(C(=O)NCc2ccnc(OC)c2)c1	25.8
Cc1ccc(OCC(O)CN2CCC(Cn3cc(C)cn3)CC2)cc1 (stereo not given)	-0.66
Cc1cc(C(=O)Nc2ccc(-c3nnc(N(C)C)o3)cc2)oc1C	14.7
CCS(=O)(=O)N1CCc2ccc(NC(=O)NC(C)(C)C)cc21	-13.6
Cc1cccc(-c2noc(CN3CC(n4cc(C)cn4)C3)n2)c1	-5.31
CSc1cccc(CN(C)C(=O)Nc2nc(C)n(C)n2)c1	-3.93
CN1CCc2c(C#N)c(NCCCN3CCOCC3)n3cnnc3c2C1	-14.3
Cc1nc(C)n(CC2CCCCN2Cc2cnc(C)s2)n1 (stereo not given)	-7.75
Cc1cc2c(=O)n3c(nc2s1)CCN(C(=O)c1ccnn1C)CC3	-8.17
COCCN(Cc1ccc(F)cc1Cl)C(=O)c1cnn(C)c1C	7.76
COc1cccc(CNc2cc(N3CCCC3CO)ncn2)n1 (stereo not given)	-0.345
O=C(C1CCCN(Cc2ccccc2)C1)N1CCc2sccc2C1 (stereo not given)	31
CC(NCc1cnn(C)c1)c1noc(-c2ccc(Cl)cc2)n1 (stereo not given)	-5.15
O=C(C1CNCCO1)N1CCCC(c2ccccc2)(c2ccccc2)C1 (stereo not given)	-0.462
CCCN(Cc1cnn(C)c1)CC1CCCN(S(C)(=O)=O)C1 (stereo not given)	23.4
CCn1cc(CN2CCCn3nc(CNC(=O)C4CCC4)cc3C2)cn1	-9
COCCCC(=O)NC1(c2cccc(Br)c2)CC1	8.13
Cc1nn(C)c(C)c1CC(=O)NCc1cccnc1N1CCOCC1	-5.49
Cc1ccc(NS(C)(=O)=O)c(C(=O)NCCC(=O)NC(C)C)c1	-6.46
CC(CCN(C)C)NC(=O)N1CCSC(C)(C)C1 (stereo not given)	-1.34
COC(=O)CCNC(=O)c1ccc(NC(=O)N(C)CC(C)(C)C)cc1	-6.05
CCOCCN1CCN(CCC(=O)N2CCCCC2)CC1C (stereo not given)	-0.119
